Reference: patent publication US10392391B2 (Vertex Pharmaceuticals Incorporated, priority 2012, dated 2019)
pKi: −log10 of the molar value.

Each molecule was assayed against ATR kinase (full-length ATR) (Homo sapiens (Human), UniProt Q13535) (assay: ATR inhibition assay (radioactive-phosphate incorporation)). Details: not given.
Assay type: biochemical
Summary of the method: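 Ki(app) was fitted by non-linear regression to background-corrected initial rates. Full-length ATR (5 nM) phosphorylated 800 μM peptide using 10 μM [γ-33P]ATP at 25° C in Tris/HCl pH 7.5 buffer with MgCl2, DTT and 7% DMSO. After 10-minute compound pre-incubation and 24-hour reaction, phosphocellulose filters were scintillation counted.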

ATR kinase (full-length ATR), sequence (Q13535 whole entry): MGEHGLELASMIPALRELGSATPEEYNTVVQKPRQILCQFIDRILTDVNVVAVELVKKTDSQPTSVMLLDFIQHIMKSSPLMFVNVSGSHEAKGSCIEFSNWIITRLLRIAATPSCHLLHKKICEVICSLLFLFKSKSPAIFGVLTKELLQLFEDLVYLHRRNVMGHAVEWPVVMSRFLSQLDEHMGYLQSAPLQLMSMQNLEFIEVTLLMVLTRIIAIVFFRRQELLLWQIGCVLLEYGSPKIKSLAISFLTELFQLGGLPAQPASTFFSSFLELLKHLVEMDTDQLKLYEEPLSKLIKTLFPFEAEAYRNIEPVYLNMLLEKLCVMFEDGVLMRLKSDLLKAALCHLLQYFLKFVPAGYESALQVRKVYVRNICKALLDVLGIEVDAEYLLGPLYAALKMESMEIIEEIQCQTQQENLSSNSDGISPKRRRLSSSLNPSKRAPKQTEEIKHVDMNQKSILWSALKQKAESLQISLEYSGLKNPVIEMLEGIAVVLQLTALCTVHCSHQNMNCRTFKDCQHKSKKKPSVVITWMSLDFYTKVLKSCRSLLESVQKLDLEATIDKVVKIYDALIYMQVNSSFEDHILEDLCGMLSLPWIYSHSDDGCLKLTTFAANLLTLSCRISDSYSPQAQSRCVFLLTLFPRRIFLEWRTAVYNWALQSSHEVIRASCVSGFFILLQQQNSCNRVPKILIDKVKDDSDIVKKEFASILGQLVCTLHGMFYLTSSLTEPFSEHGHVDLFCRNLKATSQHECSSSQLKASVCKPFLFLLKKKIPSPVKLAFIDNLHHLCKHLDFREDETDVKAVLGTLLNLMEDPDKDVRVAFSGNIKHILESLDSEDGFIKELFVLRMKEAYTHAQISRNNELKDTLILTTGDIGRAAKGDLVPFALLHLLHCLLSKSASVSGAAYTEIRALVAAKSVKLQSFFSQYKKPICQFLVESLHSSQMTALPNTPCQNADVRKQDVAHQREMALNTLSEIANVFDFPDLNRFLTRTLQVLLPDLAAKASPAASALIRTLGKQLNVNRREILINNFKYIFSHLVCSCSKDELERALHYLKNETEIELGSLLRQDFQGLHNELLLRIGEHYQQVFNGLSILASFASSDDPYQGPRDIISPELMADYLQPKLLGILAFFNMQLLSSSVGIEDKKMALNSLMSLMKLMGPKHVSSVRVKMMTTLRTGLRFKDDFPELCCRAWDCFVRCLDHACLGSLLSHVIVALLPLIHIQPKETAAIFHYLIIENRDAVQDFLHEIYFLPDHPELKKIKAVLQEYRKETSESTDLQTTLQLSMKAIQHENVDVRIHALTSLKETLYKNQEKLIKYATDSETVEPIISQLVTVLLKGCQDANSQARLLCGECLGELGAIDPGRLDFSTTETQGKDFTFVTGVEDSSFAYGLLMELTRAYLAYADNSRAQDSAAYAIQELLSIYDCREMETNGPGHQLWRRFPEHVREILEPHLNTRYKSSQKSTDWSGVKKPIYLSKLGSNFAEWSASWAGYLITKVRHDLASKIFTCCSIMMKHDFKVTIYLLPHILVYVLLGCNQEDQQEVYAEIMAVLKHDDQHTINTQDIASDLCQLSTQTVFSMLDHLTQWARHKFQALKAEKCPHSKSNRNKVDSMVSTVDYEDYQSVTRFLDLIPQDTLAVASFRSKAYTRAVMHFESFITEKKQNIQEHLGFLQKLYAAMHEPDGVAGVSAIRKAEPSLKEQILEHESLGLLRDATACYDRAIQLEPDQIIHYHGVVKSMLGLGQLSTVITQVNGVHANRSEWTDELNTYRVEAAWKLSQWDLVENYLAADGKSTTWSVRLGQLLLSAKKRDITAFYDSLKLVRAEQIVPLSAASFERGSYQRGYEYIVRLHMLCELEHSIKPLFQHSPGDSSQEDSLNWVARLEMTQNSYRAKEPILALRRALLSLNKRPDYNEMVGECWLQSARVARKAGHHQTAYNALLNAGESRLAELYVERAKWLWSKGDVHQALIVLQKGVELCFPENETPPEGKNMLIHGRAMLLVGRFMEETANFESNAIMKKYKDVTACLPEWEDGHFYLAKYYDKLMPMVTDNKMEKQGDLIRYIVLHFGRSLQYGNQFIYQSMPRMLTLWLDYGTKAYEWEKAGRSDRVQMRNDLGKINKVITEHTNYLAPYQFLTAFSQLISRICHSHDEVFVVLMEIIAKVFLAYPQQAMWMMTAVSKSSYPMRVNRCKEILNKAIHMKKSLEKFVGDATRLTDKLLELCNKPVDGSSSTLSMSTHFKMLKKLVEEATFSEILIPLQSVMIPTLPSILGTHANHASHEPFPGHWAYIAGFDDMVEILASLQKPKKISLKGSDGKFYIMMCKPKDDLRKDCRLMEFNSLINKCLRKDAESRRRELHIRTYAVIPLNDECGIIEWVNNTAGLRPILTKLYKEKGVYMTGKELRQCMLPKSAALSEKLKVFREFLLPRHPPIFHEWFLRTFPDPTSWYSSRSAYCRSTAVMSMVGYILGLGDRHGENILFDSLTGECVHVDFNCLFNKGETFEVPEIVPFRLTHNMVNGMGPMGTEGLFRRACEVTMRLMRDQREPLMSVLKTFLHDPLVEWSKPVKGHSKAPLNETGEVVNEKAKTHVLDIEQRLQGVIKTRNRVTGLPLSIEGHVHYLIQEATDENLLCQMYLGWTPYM

pKi | Structure (SMILES)
5.30 to 6.00 | CN1CCN(c2c(NC(=O)c3c(N)nn4cc(F)cnc34)cncc2C(F)F)CC1 [I-N-111, 2-amino-N-(5-(difluoromethyl)-4-(4-methylpiperazin-1-yl)pyridin-3-yl)-6-fluoropyrazolo[1,5-a]pyrimidine-3-carboxamide]
5.30 to 6.00 | Nc1nn2cc(F)cnc2c1C(=O)Nc1cnccc1N1CCN(C2COC2)C2CC21 (stereo not drawn) [I-N-112, 2-amino-6-fluoro-N-(4-(5-(oxetan-3-yl)-2,5-diazabicyclo[4.1.0]heptan-2-yl)pyridin-3-yl)pyrazolo[1,5-a]pyrimidine-3-carboxamide]
5.30 to 6.00 | CN1CCN(c2c(C#N)cncc2NC(=O)c2c(N)nn3cc(F)cnc23)CC1 [I-N-113, 2-amino-N-(5-cyano-4-(4-methylpiperazin-1-yl)pyridin-3-yl)-6-fluoropyrazolo[1,5-a]pyrimidine-3-carboxamide]
6.00 to 8.00 | CN1CC[C@@H](OC2CCN(c3ccncc3NC(=O)c3c(N)nn4cc(F)cnc34)CC2)C1 [I-N-131]
6.00 to 8.00 | CN1CC[C@@H](OC2CCN(c3c(F)cncc3NC(=O)c3c(N)nn4cc(F)cnc34)CC2)C1 [I-N-132, (R)-2-amino-6-fluoro-N-(5-fluoro-4-(4-((1-methylpyrrolidin-3-yl)oxy)piperidin-1-yl)pyridin-3-yl)pyrazolo[1,5-a]pyrimidine-3-carboxamide]

Same assay, conditions: Ki(app), 5 nM full-length ATR, 10 μM ATP, 25° C.

Structure (SMILES) | pKi
Nc1nn2cc(Cl)cnc2c1C(=O)Nc1cnccc1N1CCC(N2CC[C@H](F)C2)CC1 [I-N-103, (S)-2-amino-6-chloro-N-(4-(4-(3-fluoropyrrolidin-1-yl)piperidin-1-yl)pyridin-3-yl)pyrazolo[1,5-a]pyrimidine-3-carboxamide] | 6.00 to 8.00
Nc1nn2cc(Cl)cnc2c1C(=O)Nc1cnccc1N1CCC(N2CCOCC2)CC1 [I-N-104, 2-amino-6-chloro-N-(4-(4-morpholinopiperidin-1-yl)pyridin-3-yl)pyrazolo[1,5-a]pyrimidine-3-carboxamide] | 6.00 to 8.00
COC1CN(C2CCN(c3ccncc3NC(=O)c3c(N)nn4cc(Cl)cnc34)CC2)C1 [I-N-107, 2-amino-6-chloro-N-(4-(4-(3-methoxyazetidin-1-yl)piperidin-1-yl)pyridin-3-yl)pyrazolo[1,5-a]pyrimidine-3-carboxamide] | 6.00 to 8.00
Nc1nn2cc(F)cnc2c1C(=O)Nc1cnccc1N1CCN2CCOC[C@H]2C1 [I-N-116, (R)-2-amino-6-fluoro-N-(4-(hexahydropyrazino[2,1-c][1,4]oxazin-8(1H)-yl)pyridin-3-yl)pyrazolo[1,5-a]pyrimidine-3-carboxamide] | 6.00 to 8.00
Nc1nn2cc(Cl)cnc2c1C(=O)Nc1cncc(F)c1N1CCN(C2COC2)CC1 [I-N-117, 2-amino-6-chloro-N-(5-fluoro-4-(4-(oxetan-3-yl)piperazin-1-yl)pyridin-3-yl)pyrazolo[1,5-a]pyrimidine-3-carboxamide] | 6.00 to 8.00
Nc1nn2cc(F)cnc2c1C(=O)Nc1cncc(C2CC2)c1N1CCN([C@H]2CCOC2)CC1 [I-N-120, (S)-2-amino-N-(5-cyclopropyl-4-(4-(tetrahydrofuran-3-yl)piperazin-1-yl)pyridin-3-yl)-6-fluoropyrazolo[1,5-a]pyrimidine-3-carboxamide] | 6.00 to 8.00
Cc1cncc(NC(=O)c2c(N)nn3cc(F)cnc23)c1N1CCN(C2CCOCC2)CC1 [I-N-123, 2-amino-6-fluoro-N-(5-methyl-4-(4-(tetrahydro-2H-pyran-4-yl)piperazin-1-yl)pyridin-3-yl)pyrazolo[1,5-a]pyrimidine-3-carboxamide] | 6.00 to 8.00
Nc1nn2cc(F)cnc2c1C(=O)Nc1cncc(Cl)c1N1CCN(C2CCOC2)CC1 (stereo not drawn) [I-N-124, 2-amino-N-(5-chloro-4-(4-(tetrahydrofuran-3-yl)piperazin-1-yl)pyridin-3-yl)-6-fluoropyrazolo[1,5-a]pyrimidine-3-carboxamide] | 6.00 to 8.00
Nc1nn2cc(F)cnc2c1C(=O)Nc1cncc(F)c1N1CCN([C@H]2CCOC2)CC1 [I-N-125, (S)-2-amino-6-fluoro-N-(5-fluoro-4-(4-(tetrahydrofuran-3-yl)piperazin-1-yl)pyridin-3-yl)pyrazolo[1,5-a]pyrimidine-3-carboxamide] | 6.00 to 8.00
COCCN1CCN(c2c(F)cncc2NC(=O)c2c(N)nn3cc(F)cnc23)CC1 [I-N-127, 2-amino-6-fluoro-N-(5-fluoro-4-(4-(2-methoxyethyl)piperazin-1-yl)pyridin-3-yl)pyrazolo[1,5-a]pyrimidine-3-carboxamide] | 6.00 to 8.00
CNc1cc(N2CCN(C)CC2)c(NC(=O)c2c(N)nn3cc(F)cnc23)cn1 [I-N-129, 2-amino-6-fluoro-N-(6-(methylamino)-4-(4-methylpiperazin-1-yl)pyridin-3-yl)pyrazolo[1,5-a]pyrimidine-3-carboxamide] | 6.00 to 8.00
Nc1nn2cc(F)cnc2c1C(=O)Nc1cncc(F)c1N1CCN(C(=O)C2CN3CCC2CC3)CC1 (stereo not drawn) [I-N-130, 2-amino-6-fluoro-N-(5-fluoro-4-(4-(quinuclidine-3-carbonyl)piperazin-1-yl)pyridin-3-yl)pyrazolo[1,5-a]pyrimidine-3-carboxamide] | 6.00 to 8.00
CN1CCN(c2ccncc2NC(=O)c2c(N)nn3cc(F)cnc23)CC12CCOCC2 [I-N-133, 2-amino-6-fluoro-N-(4-(1-methyl-9-oxa-1,4-diazaspiro[5.5]undecan-4-yl)pyridin-3-yl)pyrazolo[1,5-a]pyrimidine-3-carboxamide] | 6.00 to 8.00
Nc1nn2cc(F)cnc2c1C(=O)Nc1cncc(F)c1N1CCN(C(=O)C23CCN(CC2)CC3)CC1 [I-N-134, 2-amino-6-fluoro-N-(5-fluoro-4-(4-(quinuclidine-4-carbonyl)piperazin-1-yl)pyridin-3-yl)pyrazolo[1,5-a]pyrimidine-3-carboxamide] | 6.00 to 8.00
Nc1nn2cc(F)cnc2c1C(=O)Nc1cncc(F)c1N1CCN2CCOC[C@H]2C1 [I-N-135, (R)-2-amino-6-fluoro-N-(5-fluoro-4-(hexahydropyrazino[2,1-c][1,4]oxazin-8(1H)-yl)pyridin-3-yl)pyrazolo[1,5-a]pyrimidine-3-carboxamide] | 6.00 to 8.00
Nc1nn2cc(F)cnc2c1C(=O)Nc1cnccc1N1CCN2C(=O)COCC2C1 (stereo not drawn) [I-N-136, 2-amino-6-fluoro-N-(4-(4-oxohexahydropyrazino[2,1-c][1,4]oxazin-8(1H)-yl)pyridin-3-yl)pyrazolo[1,5-a]pyrimidine-3-carboxamide] | 6.00 to 8.00

Next, values leading:

pKi | Structure (SMILES)
6.00 to 8.00 | Nc1nn2cc(Cl)cnc2c1C(=O)Nc1cnccc1N1CCC(N2CCn3ccnc3C2)CC1 [I-N-102, 2-amino-6-chloro-N-(4-(4-(5,6-dihydroimidazo[1,2-a]pyrazin-7(8H)-yl)piperidin-1-yl)pyridin-3-yl)pyrazolo[1,5-a]pyrimidine-3-carboxamide]
6.00 to 8.00 | Nc1nn2cc(Cl)cnc2c1C(=O)Nc1cnccc1N1CCC(N2CCCC2)CC1 [I-N-105, 2-amino-6-chloro-N-(4-(4-(pyrrolidin-1-yl)piperidin-1-yl)pyridin-3-yl)pyrazolo[1,5-a]pyrimidine-3-carboxamide]
6.00 to 8.00 | CN(C)C1CCN(C2CCN(c3ccncc3NC(=O)c3c(N)nn4cc(Cl)cnc34)CC2)C1 (stereo not drawn) [I-N-106, 2-amino-6-chloro-N-(4-(4-(3-(dimethylamino)pyrrolidin-1-yl)piperidin-1-yl)pyridin-3-yl)pyrazolo[1,5-a]pyrimidine-3-carboxamide]
6.00 to 8.00 | Nc1nn2cc(Cl)cnc2c1C(=O)Nc1cnccc1N1CCC(N2CC(F)(F)C2)CC1 [I-N-108, 2-amino-6-chloro-N-(4-(4-(3,3-difluoroazetidin-1-yl)piperidin-1-yl)pyridin-3-yl)pyrazolo[1,5-a]pyrimidine-3-carboxamide]
6.00 to 8.00 | Nc1nn2cc(Cl)cnc2c1C(=O)Nc1cnccc1N1CCC(N2CCC23COC3)CC1 [I-N-109, N-(4-(4-(6-oxa-1-azaspiro[3.3]heptan-1-yl)piperidin-1-yl)pyridin-3-yl)-2-amino-6-chloropyrazolo[1,5-a]pyrimidine-3-carboxamide]
6.00 to 8.00 | Nc1nn2cc(F)cnc2c1C(=O)Nc1cnccc1N1CCN2CCOC[C@@H]2C1 [I-N-115, (S)-2-amino-6-fluoro-N-(4-(hexahydropyrazino[2,1-c][1,4]oxazin-8(1H)-yl)pyridin-3-yl)pyrazolo[1,5-a]pyrimidine-3-carboxamide]
6.00 to 8.00 | Nc1nn2cc(F)cnc2c1C(=O)Nc1cncc(C2CC2)c1N1CCN([C@@H]2CCOC2)CC1 [I-N-119, (R)-2-amino-N-(5-cyclopropyl-4-(4-(tetrahydrofuran-3-yl)piperazin-1-yl)pyridin-3-yl)-6-fluoropyrazolo[1,5-a]pyrimidine-3-carboxamide]
6.00 to 8.00 | Nc1nn2cc(F)cnc2c1C(=O)Nc1cncc(F)c1N1CCN(C2CCOCC2)CC1 [I-N-121, 2-amino-6-fluoro-N-(5-fluoro-4-(4-(tetrahydro-2H-pyran-4-yl)piperazin-1-yl)pyridin-3-yl)pyrazolo[1,5-a]pyrimidine-3-carboxamide]
6.00 to 8.00 | Nc1nn2cc(F)cnc2c1C(=O)Nc1cncc(F)c1N1CCN(C2CCOC2)CC1 (stereo not drawn) [I-N-122, 2-amino-6-fluoro-N-(5-fluoro-4-(4-(tetrahydrofuran-3-yl)piperazin-1-yl)pyridin-3-yl)pyrazolo[1,5-a]pyrimidine-3-carboxamide]
6.00 to 8.00 | Nc1nn2cc(F)cnc2c1C(=O)Nc1cncc(Cl)c1N1CCNCC1 [I-N-126, 2-amino-N-(5-chloro-4-(piperazin-1-yl)pyridin-3-yl)-6-fluoropyrazolo[1,5-a]pyrimidine-3-carboxamide]
6.00 to 8.00 | CN1CCC(C(=O)N2CCN(c3c(F)cncc3NC(=O)c3c(N)nn4cc(F)cnc34)CC2)CC1 [I-N-128, 2-amino-6-fluoro-N-(5-fluoro-4-(4-(1-methylpiperidine-4-carbonyl)piperazin-1-yl)pyridin-3-yl)pyrazolo[1,5-a]pyrimidine-3-carboxamide]
6.00 to 8.00 | Nc1nn2cc(F)cnc2c1C(=O)Nc1cncc(F)c1N1CCN2CCOC[C@@H]2C1 [I-N-137, (S)-2-amino-6-fluoro-N-(5-fluoro-4-(hexahydropyrazino[2,1-c][1,4]oxazin-8(1H)-yl)pyridin-3-yl)pyrazolo[1,5-a]pyrimidine-3-carboxamide]
